From US20140296149A1, “Compositions and Methods for the Treatment of Cardiac Surgery-Associated Acute Kidney Injury with Annexin A1 Peptide” (priority 2010, published 2014)
No end group written: not given here.

Legend:
rat model of CPB/DHCA = experiment: Preclinical rat model of CPB/DHCA, cardiac-surgery associated AKI (Example I, i.p.); type: in vivo
Procedure: FIGS. 1A-B. ANXA1 short peptide (ANXA1sp) treatment ameliorates proximal tubular apoptosis and inhibits the activity of caspase-3 induced by ischemia-reperfusion injury following deep hypothermia circulatory arrest (DHCA). Quantification of apoptosis was determined by terminal deoxynucleotidyl transferase dUTP nick end labeling (TUNEL) staining (A) and the activity of caspase-3 analyzed by Western blot (B) at 24 h after DHCA in rats either treated with ANXA1sp or 0.1% DMSO (vehicle) i.p. Results are shown as mean±SD of six animals in each group. *p<0.002.
FIGS. 2A-B. Effect of treatment of ANXA1sp after ischemia-reperfusion injury on cell apoptosis and cell proliferation. (A) Treatment with ANXA1sp inhibits apoptosis (TUNEL staining) and enhances proliferation (PCNA staining) induced by ischemia-reperfusion injury following deep hypothermia circulatory arrest (DHCA). Representative sections from 24 hrs after DHCA in rats treated with either ANXA1sp or 0.1% DMSO (vehicle) (original magnification 300×). (B) ANXA1sp tilts the balance of proximal tubular cell fate toward survival after ischemia-reperfusion injury. A ratio of proliferation/apoptosis (TUNEL) was calculated in proximal tubules 24 hrs after DHCA in rats treated with either ANXA1sp or 0.1% DMSO (vehicle). Results were shown as mean±SD of six rats in each group. *p<0.005 versus vehicle.
FIGS. 3A-C. (A) Protein levels of neutrophil gelatinase associated lipocalin (NGAL) analyzed by Western blot in the kidney 24 hrs after reperfusion following cardiopulmonary bypass (CPB) and deep hypothermic circulatory arrest (DHCA) in vehicle treated animals (Vehicle) versus ANXA1sp treated animals (ANXA1sp). Results are shown as mean±SD. (n=6). *p<0.01 vs. Vehicle. (B) Effect of ANXA1sp on renal NGAL protein levels. Results are representative of six independent experiments in each group. (C) The location of NGAL protein detected by immunohistochemistry in the kidney 24 hrs after reperfusion following DHCA in vehicle treated animals (Vehicle) versus ANXA1sp treated animals (ANXA1sp). NGAL protein was visualized with the NGAL antibody. NGAL positive staining was abundant in ANXA1sp treated animals and mainly located in the proximal tubule cells (red color) (original magnification 200×).
FIG. 4. ANXA1sp treatment represses the renal levels of TNF-α induced by ischemia-reperfusion injury following deep hypothermia circulatory arrest (DHCA) analyzed by ELISA in the kidney 24 hrs after reperfusion in rats either treated with ANXA1sp (open bar, n=6) or vehicle (0.1% DMSO) i.p. (filled bar, n=6). Results are expressed as mean value±SD; *p<0.05 vs. Vehicle.
(§1) NGAL positive staining was abundant in ANXA1sp treated animals and mainly located in the proximal tubule cells (FIG. 3C).

rat model of CPB/CA = experiment: Early renal biomarker GST-μ in rat urine, preclinical model of CPB/CA; type: in vivo; conditions: setting of myocardial ischemia/reperfusion, n=3, vs vehicle
From the text: FIG. 5. […] Values presented are means±SD; n=3; *p<0.05 vs. Vehicle.
as §1

[1] = test system: Male Sprague-Dawley rats, CPB/DHCA; experiment: Rat CPB/DHCA, ANXA1sp 2 mg/kg i.v. (Example II); type: in vivo
Procedure: Male Sprague-Dawley rats were prepared for 60 min of DHCA at 18° C. and received either vehicle or ANXA1 sp (2 mg/kg) i.v. at one hour before CPB and one hour after reperfusion. Renal tissue and serum samples were harvested at 3 (n=5), 6 (n=3), and 24 hours (n=3) i.v. after CPB/DHCA. The time course of renal activity of NF-kappa B was determined by a rat specific ELISA kit. Changes of renal and serum levels of the proinflammatory cytokines tumor necrosis factor-alpha (TNF-α) and interleukin (IL)-6 as well as myeloperoxidase (MPO) were measured by ELISA. Changes of renal levels of activated caspase-3 were determined by Western blot. At 24 hours after DHCA, apoptotic proximal tubular cells was identified by TUNEL and quantified by counting the numbers of apoptotic proximal tubular cells in 5 representative renal areas.

[2] = test system: myocardial ischemia-reperfusion; conditions: several in vitro and in vivo preclinical models; cited from earlier work
[3] = test system: splanchnic artery occlusion and reperfusion injury; conditions: by affecting neutrophil migration; cited from earlier work
[4] = test system: experimental myocardial ischemia-reperfusion; conditions: by attenuating neutrophil migration; cited from earlier work
myocardial I/R injury = conditions: cited from earlier work
[5] = 6 and 24 h after DHCA, vs vehicle

Ac-Gln-Ala-Trp [ANXA1sp]
numbers of proximal tubular cells (apoptosis, TUNEL staining) (rat model of CPB/DHCA; 24 h after DHCA, i.p., vs vehicle, n=6): reduced numbers
tubule cell proliferation (PCNA staining) (rat model of CPB/DHCA; 24 hrs after DHCA, vs vehicle): enhanced
expression of NGAL in the kidney (Western blot) (rat model of CPB/DHCA; 24 hrs after reperfusion following CPB and DHCA, vs vehicle): significantly higher expression
levels of TNF-α protein in the kidney (ELISA) (rat model of CPB/DHCA; 24 hrs after reperfusion, i.p., vs vehicle): significantly lower levels
activity of caspase-3 (Western blot) (rat model of CPB/DHCA; kidney, 24 h after DHCA, i.p., vs vehicle): lower activity
NGAL positive staining (immunohistochemistry) (rat model of CPB/DHCA; kidney, 24 hrs after reperfusion, mainly located in proximal tubule cells): abundant
balance of proximal tubular cell fate (ratio of proliferation/apoptosis) (rat model of CPB/DHCA; proximal tubules, 24 hrs after DHCA, vs vehicle): tilted the balance of proximal tubular cell fate toward survival
cardiac-surgery associated acute kidney injury (AKI) (rat model of CPB/DHCA; rat CPB/DHCA, vs vehicle (0.1% DMSO)): significantly attenuates
expression of GST-μ in rat urine (rat model of CPB/CA): significantly reduced expression
AKI following CPB/DHCA [1]: attenuates
renal activity of NF-kappa B (ELISA) ([1]; 3 and 6 hours after DHCA, vs vehicle): significant inhibition
renal levels of IL-6 (ELISA) [1, 5]: significantly suppressed
renal levels of MPO (ELISA) [1, 5]: significantly suppressed
numbers of apoptotic proximal tubular cells (TUNEL) ([1]; 24 h after DHCA, vs vehicle): reduced numbers
renal levels of TNF-α (ELISA) ([1]; 24 hours after DHCA, vs vehicle): significantly suppressed
renal activity of caspase-3 (Western blot) ([1]; different time points after DHCA, vs vehicle): significantly decreased
release of IL-6 in the serum ([1]; vs vehicle, data not shown): significantly reduced release
release of MPO in the serum ([1]; vs vehicle, data not shown): significantly reduced release
release of TNF-α in the serum ([1]; vs vehicle, data not shown): significantly reduced release
cardioprotective efficacy [2]: robust cardioprotective efficacy

Ac-Ala-Met-Val-Ser-Glu-Phe-Leu-Lys-Gln-Ala-Trp Phe-Ile-Glu-Asn-Glu-Glu-Gln-Glu-Tyr-Val-Gln-Thr-Val-Lys (Ac-AMVSEFLKQAWFIENEEQEYVQTVK) [Ac2-26]
protection against splanchnic artery occlusion and reperfusion injury [3]: protects
protection against experimental myocardial ischemia-reperfusion [4]: protects

B1: ANXA1: 37 kDa protein, member of the annexin superfamily; about 346 amino acids (SEQ ID NO:2) (protein, listed as Homo sapiens)
chain: MAMVSEFLKQAWFIENEEQEYVQTVKSSKGGPGSAVSPYPTFNPSSDVAALHKAIMVKGVDEATIIDILTKRNNAQRQQIKAAYLQETGKPLDETLKKALTGHLEEVVLALLKTPAQFDADELRAAMKGLGTDEDTLIEILASRTNKEIRDINRVYREELKRDLAKDITSDTSGDFRNALLSLAKGDRSEDFGVNEDLADSDARALYEAGERRKGTDVNVFNTILTTRSYPQLRRVFQKYTKYSKHDMNKVLDLELKGDIEKCLTAIVKCATSKPAFFAEKLHQAMKGVGTRHKALIRIMVSRSEIDMNDIKAFYQKMYGISLCQAILDETKGDYEKILVALCGGN
leukocyte-dependent myocardial damage (myocardial I/R injury; myocardial I/R injury): reduces
numbers of extravasated leukocytes (myocardial I/R injury; rats treated with ANXA1): significantly lower numbers
